Source: US7855300B2, “Bis(trimethylsilyl)phenyl compound or salt thereof, and use thereof” (Taiho Pharmaceutical Co., Ltd., priority 2007, dated 2010)

Assays:
[1] = Rat toxicity test, oral administration for 4 weeks; type: in vivo, male SD rats; set-up: key: +: recognized; −: not observed
Procedure: The compounds of the present invention and the reference compound TAC-101 were orally administered to male SD rats (CLEA Japan, Inc.) for 4 weeks. The dosage of each compound was 6 mg/kg or 24 mg/kg per rat. Differences in toxic symptoms were compared and studied.

[2] = tested on: JHH-7 (human hepatocellular carcinoma cell lines); test: Antitumor effect in JHH-7 orthotopic liver transplantation model; type: in vivo, male nude mice (BALB/cA Jcl-nu); conditions: 16 mg/kg orally once per day for 14 days; tumor weight on 15th day; T/C×100
Procedure: RARα high expression cells, i.e., human hepatocellular carcinoma cell lines JHH-7, were implanted in the outside left lobe of the liver of male nude mice (BALB/cA Jcl-nu; CLEA Japan, Inc.) under Nembutal anesthesia in an amount of 1×10^6 cells (0.02 ml) per mouse. On the 11th to 14th day after implantation, the mice were divided into groups, each consisting of seven mice. The compounds of the present invention and the reference compound TAC-101 were suspended in 0.5% HPMC and 1.6 mg/ml solution was orally administered to the mice at a liquid dose of 10 ml/kg, namely, at a dose of 16 mg/kg, once per day for 14 days. On the 15th day after the start of administration, the mice were exsanguinated to death under ether anesthesia. Tumors formed in the outside left lobe of the liver were extracted, and the tumor weight was measured to assess the antitumor effect. The antitumor effect was evaluated by calculating the tumor growth rate (%) using the following equation. The antitumor effect of each compound was analyzed by Student's test and statistical significance was determined. Tumor growth rate(%)=T/C×100 T: Average tumor weight in the groups administered with the test compounds C: Average tumor weight in the groups not administered with test compounds

[3] = tested on: Human prostatic carcinoma cell lines TSU-Pr1; test: Growth inhibitory and differentiation-inducing effect on prostate cancer cells; type: cell-based; conditions: 10 μM, IGF-I 10 ng/ml; for Cytostatic activity (crystal violet staining): 7th day after culturing, FIG. 5; for Change in cell shape (differentiation-inducing activity): after three days, FIG. 4
Procedure: Human prostatic carcinoma cell lines TSU-Pr1 prepared in RPMI1640 culture medium containing 2% fetal bovine serum were plated into a 24-well culture plate at a cell density of 3×10^3 cells per well. The next day, IGF-I (10 ng/ml) was added as a growth factor, and the cells were treated with Compounds 2 and 3 of the present invention and the reference compound TAC-101 each in an amount of 10 μM. Change in cell shape after three days was observed. Moreover, on the 7th day after culturing, the cells were fixed with 25% glutaraldehyde solution. Cytostatic activity was determined by the crystal violet staining method, and the statistical significance of the cytostatic activity was analyzed by Student's test. […] In the Control group that was not treated with medicine, a cobblestone-like shape and vigorous cell division were observed. Such cell shape is characteristic of epithelioid cancer cells.

[4] = tested on: Human prostatic carcinoma cell lines TSU-Pr1; test: Cancer malignancy-reducing effect (tumorigenicity of pretreated TSU-Pr1 cells implanted in nude mice); type: in vivo, male nude mice (BALB/cA Jcl-nu); conditions: cells treated 72 hours, six subcutaneous sites, 26th day after implantation
Procedure: Human prostatic carcinoma cell lines TSU-Pr1 were treated with Compound 3 of the present invention and the reference compound TAC-101 for 72 hours. The cells were subcutaneously implanted into male nude mice (BALB/cA Jcl-nu; CLEA Japan, Inc.) at six sites in total per mouse. On the 26th day after implantation, the rate of subcutaneous tumor formation was observed and the effect of reducing cancer malignancy was evaluated. Statistical significance was analyzed by Wilcoxon test.

[5] = tested on: non-small cell lung cancer; conditions: phase I study, Non-Patent Document 5; cited from earlier work

| Compound | melting point | Alopecia Symptom ([1]; 6 mg/kg) | Endocortical Proliferation ([1]; 6 mg/kg) | Alopecia Symptom ([1]; 24 mg/kg) | Endocortical Proliferation ([1]; 24 mg/kg) | Tumor Growth Rate (%) [2] [%] | Cytostatic activity (crystal violet staining) [3] | Change in cell shape (differentiation-inducing activity) [3] | Graft Survival (%) [4] [%] | Tumor Formation [4] | Clinical response [5] | Side effects [5] |
| --- | --- | --- | --- | --- | --- | --- | --- | --- | --- | --- | --- | --- |
| C[Si](C)(C)c1cc(C(=O)Nc2ccc(/C=C/C(=O)O)cn2)cc([Si](C)(C)C)c1 | 302 °C (dec.) |  |  |  |  |  |  |  |  |  |  |  |
| C[Si](C)(C)c1cc(C(=O)Nc2ccc(/C=C/C(=O)O)c(F)c2)cc([Si](C)(C)C)c1 [Compound 2, 4-[[3,5-Bis(trimethylsilyl)benzoyl]amino]-2-fluorocinnamic acid] |  | − | − | − | − | 21 | dramatic cytostatic effect was recognized | dramatic change was recognized in the shape of neuroid cells |  |  |  |  |
| C[Si](C)(C)c1cc(C(=O)Nc2ccc(/C=C/C(=O)O)cc2)cc([Si](C)(C)C)c1 [Compound 3, 4-[[3,5-Bis(trimethylsilyl)benzoyl]amino]cinnamic acid] |  | − | − | − | − | 25 | dramatic cytostatic effect was recognized | dramatic change was recognized in the shape of neuroid cells | 17 | 1/6 |  |  |
| C/C(=C\C(=O)O)c1ccc(NC(=O)c2cc([Si](C)(C)C)cc([Si](C)(C)C)c2)cc1 [Compound 6, (E)-3-[4-[[3,5-Bis(trimethylsilyl)benzoyl]amino]phenyl]-2-butenoic acid] |  |  |  |  |  | 31 |  |  |  |  |  |  |
| C/C(=C\C(=O)O)c1ccc(NC(=O)c2cc([Si](C)(C)C)cc([Si](C)(C)C)c2)cc1F [Compound 11, (E)-3-[4-[[3,5-Bis(trimethylsilyl)benzoyl]amino]-2-fluorophenyl]-2-butenoic acid] |  |  |  |  |  | 36 |  |  |  |  |  |  |
| C/C(=C\c1ccc(NC(=O)c2cc([Si](C)(C)C)cc([Si](C)(C)C)c2)cc1F)C(=O)O [Compound 14, (E)-3-[4-[[3,5-Bis(trimethylsilyl)benzoyl]amino]-2-fluorophenyl]-2-methylacrylic acid] |  | − | − | − | − |  |  |  |  |  |  |  |
| C[Si](C)(C)c1cc(C(=O)Nc2ccc(C(=O)O)cc2)cc([Si](C)(C)C)c1 [TAC-101, 4-[3,5-bis(trimethylsilyl)benzamido]benzoic acid, reference compound] |  | + | − | + | + | 52 |  | no significant change was recognized in the shape | 67 | 4/6 | complete remission cases were reported | symptoms (skin disorders) similar to hypervitaminosis A were observed |
